Measurements published in US7179614B2, “Screening methods to identify compounds that modulate type I phosphodiesterase (PDE) activity” (Mount Sinai School of Medicine, priority 2000, dated 2007).
pIC50: −log10 of the molar value.

Key:
[1] = tested on: PDE1A present in fractions 6 and 11; assay: PDE assay on anion exchange fractions 6 and 11 of taste tissue; assay type: biochemical, bovine
Protocol: (§1) Preparation of taste extract. 1–2 gm circumvallate taste papillae or fungiform papillae from fresh bovine tongues were dissected and homogenized in a buffer containing 20 mMTris-Cl pH 7.5, 1 mM EDTA, 1 mM DTT, 10% glycerol, 10 μg/ml leupeptin, 10 μg/ml aprotinin, 100 μM AEBSF and 10 μg/ml pepstatin. Homogenization was carried out using a Polytron homogenizer. The homogenate was first spun at 2500×g for 10 minutes at 4° C. and the resulting supernatant was spun at 100,000×g for 30 minutes at 4° C. The supernatant of the second spin was checked for PDE activity and fractionated by anion exchange chromatography.
(§2) Anion Exchange Chromatography. Supernatant prepared from taste papillae was loaded at 1 ml/min on a DEAE-10 anion exchange column which had been equilibrated with buffer A (20 mM Tris-HCl pH 7.5, 2 mM EDTA, 20 mM β-mercapto ethanol). The column was washed in buffer A for 15 minutes or until protein was no longer detected in the buffer. Bound protein activity was eluted at a flow rate of 2 ml/min with a linear gradient (0–100%) of buffer B (buffer A+1 M NaCl) over 45 minutes Fractions were collected at 4° C. and assayed for PDE Activity. Aliquots of each fraction were boiled in sample buffer for Western blot analysis.
(§3) PDE Assays and CaM Affinity on Beads. PDE assays followed established procedures (Sonnenburg et al., Methods 1998, 14:3–19). All assays were performed at 30° C. using either 1 μM cAMP or between 0.2 and 1 μM cGMP as substrate in the presence of 1 mM EGTA (basal), 1 mM CaCl2 plus 4 μg/ml CaM (Ca^2+/CaM) or 100 μM effector activation peptide (Gαt-rod) peptide.
Specificity of the calmodulin affinity beads was checked by doing an affinity chromatography purification in the presence of 2 mM EGTA instead of CaCl2. The beads were incubated with the appropriate fractions at 4° C. for 1 hour, then spun for 2 minutes and the supernatant and pellet kept separately. The beads were then washed in the same buffer and resuspended in the presence of protease inhibitors. PDE activity was checked on the beads and in the supernatant. CaCl2 was compensated in the PDE assays when the CaM affinity was done in presence of excess EGTA.

PDE 1 = details: Yan et al., J. Biol. Chem. 1996; cited from earlier work
PDE1A2 = target: T1, PDE1A2 (Bos taurus, UniProt P14100); assay: PDE assay of recombinant PDE over-expressed in HEK-293 cells; assay type: biochemical; details: HEK-293 cell homogenate; cGMP substrate; 100 μM peptide or 1 mM CaCl2 and 4 μg/ml CaM
T1 construct: made in house; host or cells: HEK 293 cells, transient transfection, sonicated lysate
Protocol: as §3
(§4) Over-expression and Assay of Recombinant PDEs. HEK 293 cells were cultured in Eagle's MEM with 2 mM […], Earle's balanced salt solution, 1.5 g/L sodium bicarbonate, 0.1 mM non-essential amino acids, 1 mM sodium pyruvate, and 10% heat-inactivated fetal calf serum. HEK 293 cells were seeded at 0.5×10^6 per well in a 6 well dish. After 24 hours, cells were transfected with DNA constructs using Gene Porter (Gene Therapy Systems), a lipid-based transfection reagent. Cells were transfected with 6 μg DNA (PDE1A1, PDE1A2 or PDE1C3) and 30 μl transfection reagent in serum free media in a volume of 1 ml. After 5 hours, the cells were supplemented with 1 ml media containing twice serum. 24 hours later, the cells were harvested by rinsing twice with PBS, scraping the cells into 200 μl of buffer containing 20 mM Tris-Cl pH 7.5, protease inhibitors (Sigma P- 8340), 1 mM 4-(2-aminoethyl) benzenesulfonyl fluoride (AEBSF), 15 μM pepstatin A, 14 μM trans-epoxysuccinyl-L-leucylamido(4-guanidino) butane (E-64), 40 μM bestatin, 22 μM leupeptin, and 0.8 μM aprotinin. Cells were sonicated in 3 five second bursts at approximately 10 Watts, and the lysates were used as the source of enzyme in the PDE assay.

PDE1C3 = target: T2, PDE1C3 (Homo sapiens, UniProt Q14123); assay: as above; assay type: biochemical; details: HEK-293 cell homogenate; cGMP substrate; 100 μM peptide or 1 mM CaCl2 and 4 μg/ml CaM
T2 construct: made in house; host or cells: HEK 293 cells, transient transfection, sonicated lysate
Protocol: as §3, §4

PDE1A1 = target: T3, PDE1A1 (Bos taurus, UniProt P14100); assay: as above; assay type: biochemical; details: HEK-293 cell homogenate; cGMP substrate; 100 μM peptide or 1 mM CaCl2 and 4 μg/ml CaM
T3 construct: made in house; host or cells: HEK 293 cells, transient transfection, sonicated lysate
Protocol: as §3, §4

[2] = tested on: PDEs in bovine taste tissue fractions; assay: PDE assay across anion exchange fractions of taste papillae extract; assay type: biochemical; details: 100 μM peptide or 1 mM CaCl2 and 4 μg/ml CaM; for stimulation of cGMP hydrolytic activity: 1 μM cGMP; for stimulation of cAMP hydrolysis: 1 μM cAMP
Protocol: as §1, §2, §3

T1 sequence (P14100 whole entry): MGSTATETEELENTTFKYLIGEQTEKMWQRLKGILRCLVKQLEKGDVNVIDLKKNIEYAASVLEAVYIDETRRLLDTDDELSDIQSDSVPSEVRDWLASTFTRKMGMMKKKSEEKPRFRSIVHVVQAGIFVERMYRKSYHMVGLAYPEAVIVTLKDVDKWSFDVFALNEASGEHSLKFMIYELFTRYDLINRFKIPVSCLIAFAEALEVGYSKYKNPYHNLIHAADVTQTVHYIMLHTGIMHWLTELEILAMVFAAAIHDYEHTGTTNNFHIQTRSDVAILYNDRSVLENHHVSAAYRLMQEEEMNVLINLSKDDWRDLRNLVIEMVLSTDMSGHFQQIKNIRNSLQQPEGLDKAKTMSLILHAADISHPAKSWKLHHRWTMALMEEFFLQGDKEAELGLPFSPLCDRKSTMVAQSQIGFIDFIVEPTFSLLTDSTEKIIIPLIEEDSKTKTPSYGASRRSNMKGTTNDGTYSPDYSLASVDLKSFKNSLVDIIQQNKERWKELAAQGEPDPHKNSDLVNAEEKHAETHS
T2 sequence (Q14123 whole entry): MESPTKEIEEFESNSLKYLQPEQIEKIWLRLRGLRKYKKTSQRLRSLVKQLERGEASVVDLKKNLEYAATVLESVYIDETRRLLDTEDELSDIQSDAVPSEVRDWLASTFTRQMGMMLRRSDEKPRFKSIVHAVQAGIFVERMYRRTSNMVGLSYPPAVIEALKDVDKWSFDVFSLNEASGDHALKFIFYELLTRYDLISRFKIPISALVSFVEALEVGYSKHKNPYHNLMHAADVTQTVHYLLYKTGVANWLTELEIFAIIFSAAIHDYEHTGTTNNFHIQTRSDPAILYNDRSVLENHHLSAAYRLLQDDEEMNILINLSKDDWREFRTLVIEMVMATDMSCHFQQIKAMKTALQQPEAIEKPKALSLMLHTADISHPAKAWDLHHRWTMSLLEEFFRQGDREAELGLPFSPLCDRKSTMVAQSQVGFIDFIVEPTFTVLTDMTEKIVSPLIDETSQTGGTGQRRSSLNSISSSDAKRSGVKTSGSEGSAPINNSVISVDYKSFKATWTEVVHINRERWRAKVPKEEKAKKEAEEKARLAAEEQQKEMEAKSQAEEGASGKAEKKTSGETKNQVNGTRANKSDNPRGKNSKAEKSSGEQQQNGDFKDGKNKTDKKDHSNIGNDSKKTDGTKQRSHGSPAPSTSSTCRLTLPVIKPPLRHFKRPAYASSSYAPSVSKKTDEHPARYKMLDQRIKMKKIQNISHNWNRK
T3 sequence (P14100 1-514 isoform P14100-2): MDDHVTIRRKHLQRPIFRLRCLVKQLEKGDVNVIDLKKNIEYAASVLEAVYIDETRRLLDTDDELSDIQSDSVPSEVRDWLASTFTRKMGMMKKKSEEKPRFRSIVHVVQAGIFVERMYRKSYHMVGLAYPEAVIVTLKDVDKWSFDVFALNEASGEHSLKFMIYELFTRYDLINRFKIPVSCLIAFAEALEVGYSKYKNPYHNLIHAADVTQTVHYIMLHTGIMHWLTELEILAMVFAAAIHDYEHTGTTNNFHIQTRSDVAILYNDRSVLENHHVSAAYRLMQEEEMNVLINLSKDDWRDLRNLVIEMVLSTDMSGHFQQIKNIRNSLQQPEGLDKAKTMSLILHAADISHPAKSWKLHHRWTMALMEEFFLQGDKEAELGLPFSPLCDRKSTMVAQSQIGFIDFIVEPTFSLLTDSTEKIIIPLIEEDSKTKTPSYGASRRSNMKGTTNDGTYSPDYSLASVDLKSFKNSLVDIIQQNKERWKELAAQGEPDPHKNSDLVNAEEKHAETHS

stimulation of recombinant PDE activity (PDE1A2) | stimulation of recombinant PDE activity (PDE1C3) | stimulation of recombinant PDE activity (PDE1A1) | Compound | inhibition of peptide stimulated activity of PDE1A bound to calmodulin beads ([1]; PDE1A bound to calmodulin beads, Gαt-rod peptide stimulated) | inhibition of peptide stimulated PDE activity ([1]; fractions 6 and 11, 1 μM cGMP, 100 μM Gαt-rod peptide) | inhibition of calmodulin stimulated PDE activity ([1]; fractions 6 and 11, 1 μM cGMP, 1 mM CaCl2 and 4 μg/ml CaM) | pIC50 (PDE 1) | stimulation of PDE activity ([1]; fractions 6 and 11, 100 μM peptide, 1 μM cGMP) | stimulation of cGMP hydrolytic activity ([2]; first peak, fractions 6–7) | stimulation of cAMP hydrolysis ([2]; first three peaks (fractions 6–7; 10–12; 13–15)) | stimulation of cAMP hydrolysis ([2]; fourth peak, fractions 19–23 (PDE4)) | stimulation of cGMP hydrolytic activity ([2]; fourth peak, fractions 21–23) | stimulation of cGMP hydrolytic activity ([2]; second peak, fractions 10–12) | stimulation of cGMP hydrolytic activity ([2]; third peak, fractions 13–15)
– | – | – | CN1C(=O)c2[nH]c(Cc3ccc(C(F)(F)F)cc3)nc2N2C1=N[C@@H]1CCC[C@@H]12 [SCH 51866] | also inhibited peptide stimulated activity of PDE1A bound to calmodulin beads | also inhibited peptide stimulated activity | 90% | 7.00 | – | – | – | – | – | – | –
stimulated | stimulated | stimulated | Gαt-rod peptide: peptide corresponding to the PDE effector-interaction-region of rod transducin (residues 293–314 of transducin Gα) (EDAGNYIKVQFLELNMRRDVKE) | – | – | – | – | stimulated | activated | show stimulation | neither Ca^2+/CaM nor Gαt-rod peptide dependent | not stimulated above the basal level | activated | greatest activity when stimulated
